Assay results from patent publication US7342122B2, “Bisphosphonate complexes” (priority 2003, dated 2008).
Each block holds one molecule with its values, some of them ahead of it.

Key:
KB cells = assay: In vitro assay, cell growth inhibition (KB cells); type: cell-based; conditions: 72 hours; for IC50: concentration to inhibit growth of cells by 50%
Experimental: (§1) KB cells were purchased from Human Science Research Resource Bank (Osaka, Japan). The cells were cultured in Earle's MEM (GIBCO BRL) containing 10% FBS (Bio Whittaker) at 37° C. under 5% CO2. After 24 hours the test compounds were added to the cells at the indicated concentrations. 72 hours later the cells were stained with tripan blue and counted manually. IC50 is calculated as the concentration (aqueous solution) of complex required to inhibit growth of cells by 50%.

DMS114 = assay: Cell growth inhibition, lung cancer cell line DMS114; type: cell-based
Experimental: as §1
(§2) In a similar fashion a representative number of examples of compounds of the invention were tested for their ability to inhibit the growth/proliferation of cell types representing a number of different cancers. The results are provided in Tables 4-13, below, which provide the Inhibition Constants (IC50, μM) for each compound across various cell lines.

MCF-7 = assay: Cell growth inhibition, breast cancer cell line MCF-7; type: cell-based; conditions: MCF-7, breast cancer cell line
Experimental: as §1, §2

ACHN = assay: Cell growth inhibition, renal cancer ACHN; type: cell-based
Experimental: as §1, §2

OVCAR-8 = assay: Cell growth inhibition, ovarian cancer cell line OVCAR-8; type: cell-based; conditions: OVCAR-8, ovarian cancer cell line
Experimental: as §1, §2

SF-539 = assay: Cell growth inhibition, brain cancer cell line SF-539; type: cell-based; conditions: SF-539, brain cancer cell line
Experimental: as §1, §2

HBC-4 = assay: Cell growth inhibition, breast cancer cell line HBC-4; type: cell-based; conditions: HBC-4, breast cancer cell line
Experimental: as §1, §2

MKN74 = assay: Cell growth inhibition, human stomach cancer MKN74; type: cell-based
Experimental: as §1, §2

KM-12 = assay: Cell growth inhibition, colon cancer cell line KM-12; type: cell-based; conditions: KM-12, colon cancer cell line
Experimental: as §1, §2

MDA-MB-231 = assay: Cell growth inhibition, breast cancer cell line MDA-MB-231; type: cell-based; conditions: MDA-MB-231, breast cancer cell line
Experimental: as §1, §2

HCC2998 = assay: Cell growth inhibition, colon cancer cell line HCC2998; type: cell-based
Experimental: as §1, §2

SK-OV-3 = assay: Cell growth inhibition, ovarian cancer cell line SK-OV-3; type: cell-based; conditions: SK-OV-3, ovarian cancer cell line
Experimental: as §1, §2

St-4 = assay: Cell growth inhibition, human stomach cancer St-4; type: cell-based; conditions: St-4, human stomach cancer
Experimental: as §1, §2

NCI-H460 = assay: Cell growth inhibition, lung cancer cell line NCI-H460; type: cell-based
Experimental: as §1, §2

HCT-116 = assay: Cell growth inhibition, colon cancer cell line HCT-116; type: cell-based; conditions: HCT-116, colon cancer cell line
Experimental: as §1, §2

NCI-H23 = assay: Cell growth inhibition, lung cancer cell line NCI-H23; type: cell-based
Experimental: as §1, §2

HBC-5 = assay: Cell growth inhibition, breast cancer cell line HBC-5; type: cell-based; conditions: HBC-5, breast cancer cell line
Experimental: as §1, §2

SNB-75 = assay: Cell growth inhibition, brain cancer cell line SNB-75; type: cell-based; conditions: SNB-75, brain cancer cell line
Experimental: as §1, §2

LOX-IMVI = assay: Cell growth inhibition, melanoma cell line LOX-IMVI; type: cell-based
Experimental: as §1, §2

BSY-1 = assay: Cell growth inhibition, breast cancer cell line BSY-1; type: cell-based; conditions: BSY-1, breast cancer cell line
Experimental: as §1, §2

SNB-78 = assay: Cell growth inhibition, brain cancer cell line SNB-78; type: cell-based; conditions: SNB-78, brain cancer cell line
Experimental: as §1, §2

U251 = assay: Cell growth inhibition, brain cancer cell line U251; type: cell-based
Experimental: as §1, §2

[1] = test system: all cell types (cancer cell lines of Tables 4-12); assay: Cell growth inhibition, mean over all cell types of the panel; type: cell-based; conditions: mean over all cell lines of Tables 4-12
Experimental: as §1, §2

SF-295 = assay: Cell growth inhibition, brain cancer cell line SF-295; type: cell-based; conditions: SF-295, brain cancer cell line
Experimental: as §1, §2

OVCAR-3 = assay: Cell growth inhibition, ovarian cancer cell line OVCAR-3; type: cell-based; conditions: OVCAR-3, ovarian cancer cell line
Experimental: as §1, §2

DU-145 = assay: Cell growth inhibition, prostatic cancer DU-145; type: cell-based, human; conditions: DU-145, prostatic cancer
Experimental: as §1, §2

RXF-631L = assay: Cell growth inhibition, renal cancer RXF-631L; type: cell-based
Experimental: as §1, §2

A549 = assay: Cell growth inhibition, lung cancer cell line A549; type: cell-based
Experimental: as §1, §2

DMS273 = assay: Cell growth inhibition, lung cancer cell line DMS273; type: cell-based
Experimental: as §1, §2

PC-3 = assay: Cell growth inhibition, prostatic cancer PC-3; type: cell-based; conditions: PC-3, prostatic cancer
Experimental: as §1, §2

MKN28 = assay: Cell growth inhibition, human stomach cancer MKN28; type: cell-based
Experimental: as §1, §2

MKN45 = assay: Cell growth inhibition, human stomach cancer MKN45; type: cell-based
Experimental: as §1, §2

MKN7 = assay: Cell growth inhibition, human stomach cancer MKN7; type: cell-based
Experimental: as §1, §2

OVCAR-5 = assay: Cell growth inhibition, ovarian cancer cell line OVCAR-5; type: cell-based; conditions: OVCAR-5, ovarian cancer cell line
Experimental: as §1, §2

HT-29 = assay: Cell growth inhibition, colon cancer cell line HT-29; type: cell-based; conditions: HT-29, colon cancer cell line
Experimental: as §1, §2

SF-268 = assay: Cell growth inhibition, brain cancer cell line SF-268; type: cell-based; conditions: SF-268, brain cancer cell line
Experimental: as §1, §2

OVCAR-4 = assay: Cell growth inhibition, ovarian cancer cell line OVCAR-4; type: cell-based; conditions: OVCAR-4, ovarian cancer cell line
Experimental: as §1, §2

NCI-H226 = assay: Cell growth inhibition, lung cancer cell line NCI-H226; type: cell-based
Experimental: as §1, §2

MKN1 = assay: Cell growth inhibition, human stomach cancer MKN1; type: cell-based
Experimental: as §1, §2

NCI-H522 = assay: Cell growth inhibition, lung cancer cell line NCI-H522; type: cell-based
Experimental: as §1, §2

- IC50 (KB cells): 2.75 µM
Molecule: cis-Pt(NH3)2Cl2
- KB cells remaining/growth in percent (Table 2, untitled) (KB cells; 1 μg/ml): 17.0%
- KB cells remaining/growth in percent (Table 2, untitled) (KB cells; 3 μg/mL): 13.4%
- KB cells remaining/growth in percent (Table 1, untitled) (KB cells; 5 μM): 28.20%
- KB cells remaining/growth in percent (Table 2, untitled) (KB cells; 10 μg/mL): 3.0%
- KB cells remaining/growth in percent (Table 1, untitled) (KB cells; 15 μM): 13.80%
- KB cells remaining/growth in percent (Table 2, untitled) (KB cells; 30 μg/mL): 2.2%
- KB cells remaining/growth in percent (Table 1, untitled) (KB cells; 50 μM): 6.78%
- KB cells remaining/growth in percent (Table 2, untitled) (KB cells; 100 μg/mL): 1.6%
- KB cells remaining/growth in percent (Table 1, untitled) (KB cells; 150 μM): 4.34%
- KB cells remaining/growth in percent (Table 1, untitled) (KB cells; 500 μM): 3.52%

- log10 IC50 (M) (DMS114): -4.89
- log10 IC50 (M) (MCF-7): -4.23
- log10 IC50 (M) (ACHN): -4.2
- log10 IC50 (M) (OVCAR-8): -4.37
- log10 IC50 (M) (SF-539): -4.82
- log10 IC50 (M) (HBC-4): -4.14
- log10 IC50 (M) (MKN74): -4.75
- log10 IC50 (M) (KM-12): -4.77
- log10 IC50 (M) (MDA-MB-231): -4.5
- log10 IC50 (M) (HCC2998): -4.81
- log10 IC50 (M) (SK-OV-3): -4.77
- log10 IC50 (M) (St-4): -4.74
- log10 IC50 (M) (NCI-H460): -5.23
- log10 IC50 (M) (HCT-116): -4.37
- log10 IC50 (M) (NCI-H23): -4.18
- log10 IC50 (M) (HBC-5): -4.12
- log10 IC50 (M) (SNB-75): -4.77
- log10 IC50 (M) (LOX-IMVI): -4.46
- log10 IC50 (M) (BSY-1): -4.89
- log10 IC50 (M) (SNB-78): -4.56
- log10 IC50 (M) (U251): -4.84
- log10 IC50 (M) [1]: -4.54
- log10 IC50 (M) (SF-295): -4.9
- log10 IC50 (M) (OVCAR-3): -4.13
- log10 IC50 (M) (DU-145): -4.33
- log10 IC50 (M) (RXF-631L): -4.89
- log10 IC50 (M) (A549): -4.69
- log10 IC50 (M) (DMS273): -4.85
- log10 IC50 (M) (PC-3): -4.22
- log10 IC50 (M) (MKN28): -4.34
- log10 IC50 (M) (MKN45): -4.68
- log10 IC50 (M) (MKN7): -4.45
- log10 IC50 (M) (OVCAR-5): -4.79
- log10 IC50 (M) (HT-29): -4.57
- log10 IC50 (M) (SF-268): -4.83
- log10 IC50 (M) (OVCAR-4): -4.19
- IC50 (KB cells): 97 µM
- log10 IC50 (M) (NCI-H226): -4.83
Molecule: [Cl-].[Cl-].c1cc[n+]2c(c1)-c1cccc[n+]1[Pt-2]21[NH2+]CC[NH+]1Cc1c2ccccc2cc2ccccc12 [Example 4, [Pt(bpy)(Aten)]Cl2]
- KB cells remaining/growth in percent (Table 2, untitled) (KB cells; 1 μg/ml): 93.8%
- KB cells remaining/growth in percent (Table 2, untitled) (KB cells; 3 μg/mL): 81.4%
- KB cells remaining/growth in percent (Table 2, untitled) (KB cells; 10 μg/mL): 75.3%
- KB cells remaining/growth in percent (Table 2, untitled) (KB cells; 30 μg/mL): 73.2%
- KB cells remaining/growth in percent (Table 2, untitled) (KB cells; 100 μg/mL): 32.5%

- log10 IC50 (M) (DMS114): -4.72
- log10 IC50 (M) (MCF-7): -4.19
- log10 IC50 (M) (ACHN): -5.37
- log10 IC50 (M) (MKN1): -4.42
- log10 IC50 (M) (HBC-4): -4.27
- log10 IC50 (M) (MDA-MB-231): -4.06
- log10 IC50 (M) (SK-OV-3): -5.2
- log10 IC50 (M) (NCI-H460): -4.46
- log10 IC50 (M) (HCT-116): -4.41
- log10 IC50 (M) (NCI-H23): -4.7
- log10 IC50 (M) (HBC-5): -5.16
- log10 IC50 (M) (SNB-75): -5.51
- log10 IC50 (M) (LOX-IMVI): -4.08
- log10 IC50 (M) (BSY-1): -4.71
- log10 IC50 (M) (SNB-78): -4.29
- log10 IC50 (M) [1]: -4.38
- log10 IC50 (M) (SF-295): -4.46
- log10 IC50 (M) (OVCAR-3): -4.82
- log10 IC50 (M) (DU-145): -4.66
- log10 IC50 (M) (RXF-631L): -4.37
- log10 IC50 (M) (DMS273): -4.29
- log10 IC50 (M) (PC-3): -4.04
- log10 IC50 (M) (MKN45): -4.14
- log10 IC50 (M) (NCI-H522): -5.69
- log10 IC50 (M) (SF-268): -4.26
- log10 IC50 (M) (OVCAR-4): -4.42
Molecule: N.N.O.O.O.O.O.O.O.O=P([O-])([O-])OC1C(OP(=O)([O-])[O-])C(OP(=O)([O-])[O-])C(OP(=O)([O-])[O][Pt+])C(OP(=O)([O-])[O-])C1OP(=O)([O-])[O-].[Na+].[Na+].[Na+].[Na+].[Na+].[Na+].[Na+].[Na+].[Na+].[Na+] (centres unmarked) [Example 9, Pt(NH3)—IP6 Pt(NH3)2.IP6.10Na.7H2O]
